Where “and” joins values, the source holds several entries; their conditions need not be identical. Identical values can stand only once. Like-named read-outs stand apart in the source and are kept apart here.
Columns and labels:
Tadpoles = experiment: Tadpole anesthesia test (movement suppressed on contact with rod); assay type: in vivo
Protocol: Tadpoles were placed in a petri dish containing aquarium water. Four to eight tadpoles were placed in each petri dish. The aquarium water contained the specified test compound at the listed concentration. When the tadpoles stopped moving, a plastic rod was used to elicit motion once again by contact between the rod and tadpole. […] From this and the number of subjects, the percent of tadpoles in which movement was suppressed were calculated.
After 1 to 30 minutes, they were again contacted with a rod to ensure the anesthetic effect had worn off.
In some examples, subanesthetic concentrations of ethanol were added into the aquarium water. Tadpoles in which movement was prevented with exposure to a test compound and ethanol but not with exposure to a test compound alone were classified as partial anesthetics.

mouse = conditions: for Effect on the animals: 62.5 mM solution in intralipid; for Effect on the animals / Lethality to the animals: intravenous
Protocol: Butyric acid was dissolved in water to form an 8 M solution. 0.5 mL of the 8 M solution of butyric acid was injected subcutaneously (at the back of the neck) into the mouse.
3-hydroxybutyric acid was dissolved in water to form 1 M, 1.5 M, and 2 M solutions. 0.2 mL of a 1.5 M solution of 3-hydroxybutyric acid was injected into a tail vein of a CD-1 mouse. […] This was repeated for at least 2 more times on subsequent days.
Ethylmalonic acid was dissolved in water to form 2 M, 3 M, and 4 M solutions. 0.2 mL of a 3 M solution of ethylmalonic acid was injected into a tail vein of a mouse. […] This was repeated for at least 2 more times on subsequent days.
Ethylmalonic acid was dissolved in water to form a 4 M solution. 0.5 mL of the 4 M solution of ethylmalonic acid was injected subcutaneously into the mouse.

CF-1 mice = experiment: Anticonvulsant test in mice: metrazol (pentylenetetrazol) tail vein infusion, time to twitch and seizure; assay type: in vivo, mouse
Protocol: CF-1 mice were used in this study. Number 20 PE tubing to cannulate a mouse tail vein was used. An infusion pump was used to deliver a solution at a rate of 0.34 mL/min. A hemostat was used to prevent backflow in the PE tubing before the experiment stated. To begin the experiment, the hemostat that was clamped to the PE 20 tubing was removed, the infusion of the solution was started into the tail IV of the mouse, and the timer was started.
The study reflects the time in seconds from the start of the infusion to the time of twitch and onset of seizure, or 90 seconds, whichever is sooner. When the seizure occurs, the infusion is turned off.
As a control, metrazol (pentylenetetrazol) in a 0.5% solution (5 mg/mL) in water was prepared. Pentylenetetrazol is used as a control to study seizure phenomena in and to identify compounds that may control seizure susceptibility. Solutions of 8 M butyric acid and 1.5 M 3-hydroxybutyric acid were made.
The time to twitch and time to seizure of the mouse in seconds is recorded in Tables 3-5, below.

[1] = read-out: Movement suppressed (%)
[2] = average of 8 mice, 1.5 M 3-hydroxybutyric acid solution plus metrazol
[3] = individual mice, 1.5 M 3-hydroxybutyric acid solution plus metrazol
[4] = Concentration 62.5 mM in aquarium water
[5] = average of 9 mice, metrazol alone
[6] = individual mice, metrazol 0.5% solution infused 0.34 mL/min tail vein

C[C@H](O)CC(=O)O [S-3-hydroxybutyric acid, (S)-3-Hydroxybutanoic acid]
responders at 100000 µM (Tadpoles; [1]): 0% | responders at 200000 µM (Tadpoles; [1]): 0% | responders at 250000 µM (Tadpoles; [1]): 14% | responders at 300000 µM (Tadpoles; [1]): 17% | responders at 350000 µM (Tadpoles; [1]): 50% | responders at 400000 µM (Tadpoles; [1]): 92% | responders at 500000 µM (Tadpoles; [1]): 100%

O=C(O)CCCC(=O)O [Glutaric acid]
responders at 7800 µM (Tadpoles; [1]): 0% | responders at 31000 µM (Tadpoles; [1]): 0% | responders at 125000 µM (Tadpoles; [1]): 0%

CCOC(=O)C(CC)C(=O)OCC [diethyl ethyl malonate, Diethyl ethyl malonate]
Effect on the animals (mouse): lethargic and those loss coordination

CC(C)(O)CC(=O)O [3-Hydroxy-3-methylbutyric acid, 3-Hydroxy-3-methylbutanoic acid]
responders at 1600 µM (Tadpoles; [1]): 0% | responders at 6250 µM (Tadpoles; [1]): 0% | responders at 25000 µM (Tadpoles; [1]): 0% | responders at 100000 µM (Tadpoles; [1]): 100%

CC(=O)CCCC(=O)O [4-Acetylbutyric acid, 5-Oxohexanoic acid]
responders at 25000 µM (Tadpoles; [1]): 0%

ethyl isovaleric acid
Effect on the animals (mouse): lethargic and those loss coordination

CC(C)(C)CC(=O)O [3,3-Dimethylbutyric acid, 3,3-Dimethylbutanoicacid]
responders at 25000 µM (Tadpoles; [1]): 100%

CC(C)CCC(=O)O [4-Methylvaleric acid]
responders at 20000 µM (Tadpoles; [1]): 0%

N[C@@H](CO)C(=O)O [L-Serine, Serine]
responders at 114000 µM (Tadpoles; [1]): 0%

Cc1cccc(C(=O)NCC(=O)O)c1 [3-Methylhippuric acid, (3-Methylbenzoyl)glycine]
responders at 3125 µM (Tadpoles; [1]): 0%

CC(C)C(C(=O)O)C(=O)O [Isopropyl malonic acid, 2-isopropylmalonic acid]
responders at 1600 µM (Tadpoles; [1]): 0% | responders at 6250 µM (Tadpoles; [1]): 0% | responders at 25000 µM (Tadpoles; [1]): 50%

NC(=O)C[C@H](N)C(=O)O [L-Asparagine, Asparagine]
responders at 100000 µM (Tadpoles; [1]): 0%

Glycine
Movement suppressed (%) (Tadpoles; Concentration (mM) 250 + 150 EtOH): 100%

CC[C@H](C)[C@H](N)C(=O)O [Isoleucine]
responders at 25000 µM (Tadpoles; [1]): 0%

N[C@@H](Cc1c[nH]c2ccccc12)C(=O)O [Tryptophan]
responders at 12500 µM (Tadpoles; [1]): 0%

NC(=O)CC[C@H](N)C(=O)O [Glutamine]
responders at 25000 µM (Tadpoles; [1]): 0% | responders at 50000 µM (Tadpoles; [1]): 100% | responders at 100000 µM (Tadpoles; [1]): 100%

CCO [Ethanol control, Ethanol, reference compound]
responders at 100000 µM (Tadpoles; [1]): 0% | responders at 150000 µM (Tadpoles; [1]): 0% | responders at 200000 µM (Tadpoles; [1]): 0% | responders at 250000 µM (Tadpoles; [1]): 33%

O=C(O)Cc1c[nH]c2ccccc12 [Indole-3-acetic acid, 2-(1H-indol-3-yl)acetic acid]
responders at 12500 µM (Tadpoles; [1]): 0%

CCC(C(=O)O)C(=O)O [Ethyl Malonic Acid, 2-Ethylmalonic acid]
responders at 16000 µM (Tadpoles; [1]): 0% | responders at 62500 µM (Tadpoles; [1]): 0% | responders at 125000 µM (Tadpoles; [1]): 100% | responders at 250000 µM (Tadpoles; [1]): 100% | Anesthetic effect on the mouse (mouse; 0.2 mL of 3 M solution in water, tail vein): became unconscious | Anesthetic effect on the mouse (mouse; 0.5 mL of 4 M solution in water, subcutaneous): became sedated, anesthetized, or lose consciousness | Anesthetic effect on the mouse (mouse; 2 M solution in water, tail vein): did not have any observable effect | Lethality to the mouse (mouse; 4 M solution in water, tail vein): lethal

CCOC(=O)C(CC)(C(=O)OCC)c1ccccc1 [diethyl ethylphenylmalonate]
Effect on the animals (mouse): lethargic and those loss coordination | Lethality to the animals (mouse; 250 mM solution in intralipid): lethal | Lethality to the animals (mouse; 1M solution in intralipid): lethal

CC(C)[C@H](N)C(=O)O [L-valine, Valine]
responders at 7800 µM (Tadpoles; [1]): 0% | responders at 31000 µM (Tadpoles; [1]): 0% | responders at 125000 µM (Tadpoles; [1]): 0% | responders at 500000 µM (Tadpoles; [1]): 40%

CCC(C)CC(=O)O (stereo not shown) [3-Methylvaleric acid, 3-Methylpentanoic acid]
responders at 20000 µM (Tadpoles; [1]): 25%

C[C@@H](O)CC(=O)O [R-3-hydroxybutyric acid, (R)-3 -Hydroxybutanoic acid]
responders at 100000 µM (Tadpoles; [1]): 0% | responders at 200000 µM (Tadpoles; [1]): 0% | responders at 250000 µM (Tadpoles; [1]): 0% | responders at 300000 µM (Tadpoles; [1]): 0% | responders at 350000 µM (Tadpoles; [1]): 0% | responders at 400000 µM (Tadpoles; [1]): 46% | responders at 500000 µM (Tadpoles; [1]): 100%

Cc1ccc(C(=O)NCC(=O)O)cc1 [4-Methylhippuric acid, (4-Methylbenzoyl)glycine]
responders at 50000 µM (Tadpoles; [1]): 0% | responders at 150000 µM (Tadpoles; [1]): 0%

CCOC(=O)[C@@H](O)c1ccccc1 [ethyl (S)-(+)-mandelate]
Effect on the animals (mouse): lethargic and those loss coordination | Lethality to the animals (mouse; 250 mM solution in intralipid): lethal | Lethality to the animals (mouse; 1M solution in intralipid): lethal

O=C(O)CCCCC(=O)O [Adipic acid, Hexanedioic acid]
responders at 50000 µM (Tadpoles; [1]): 0%

N=C(N)NCCC[C@H](N)C(=O)O [Arginine]
responders at 46500 µM (Tadpoles; [1]): 0%

CC(O)CC(=O)O (stereo not shown) [3-hydroxybutyric acid]
Anesthetic effect on the mouse (mouse; 0.2 mL of 1.5 M solution in water, tail vein, CD-1 mouse): became unconscious or anesthetic | Anesthetic effect on the mouse (mouse; 1 M solution in water, tail vein, CD-1 mouse): did not have any observable effect | Lethality to the mouse (mouse; 2 M solution in water, tail vein, CD-1 mouse): lethal | 3-Hydroxybutyric Acid and Metrazol Time to Seizures (seconds), Avg. (CF-1 mice; [2]): 56.9 s | 3-Hydroxybutyric Acid and Metrazol Time to Twitch (seconds), Avg. (CF-1 mice; [2]): 47.5 s | 3-Hydroxybutyric Acid and Metrazol Time to Seizures (CF-1 mice; [3]): 61 seconds and 74 seconds and 53 seconds (3×) and 48 seconds (2×) and 65 seconds | 3-Hydroxybutyric Acid and Metrazol Time to Twitch (CF-1 mice; [3]): 56 s and 54 s and 49 s and 47 s and 38 s and 50 s and 45 s and 41 s

O=C(O)c1ccc2ccccc2n1 [Quinaldic acid, Quinoline-2-carboxylic acid]
responders at 25000 µM (Tadpoles; [1]): 16%

Guanidine
Movement suppressed (%) (Tadpoles; [4]): 0% | Movement suppressed (%) (Tadpoles; Concentration (mM) 62.5 + 150 EtOH): 100%

O=C(O)C(O)c1ccccc1 (stereo not shown) [Mandelic acid, 2-Hydroxy-2-phenylacetic acid]
responders at 250000 µM (Tadpoles; [1]): 0% | responders at 300000 µM (Tadpoles; [1]): 100% | responders at 500000 µM (Tadpoles; [1]): 100%

O=C(O)CCCCCCC(=O)O [Suberic acid, Octanedioic acid]
responders at 10000 µM (Tadpoles; [1]): 50%

Tartaric acid [L-Tartaric acid]
Movement suppressed (%) (Tadpoles; Concentration 50 mM in aquarium water): 0% | Movement suppressed (%) (Tadpoles; Concentration (mM) 50 + 150 EtOH): 100%

O=C(NC(O)C(=O)O)c1ccccc1 (stereo not drawn) [Alpha-Hydroxyhippuric acid, 2-Benzamido-2-hydroxyacetic acid]
responders at 5000 µM (Tadpoles; [1]): 33% | responders at 10000 µM (Tadpoles; [1]): 100%

O=C(O)[C@@H]1CCCN1 [Proline]
responders at 103000 µM (Tadpoles; [1]): 0%

CCC(C)C(=O)C(=O)O (stereo not shown) [3-Methyl-2-oxovaleric acid, 3-Methyl-2-oxopentanoic acid]
responders at 250000 µM (Tadpoles; [1]): 33%

Fumaric acid
Movement suppressed (%) (Tadpoles; Concentration 25 mM in aquarium water): 40% | Movement suppressed (%) (Tadpoles; Concentration (mM) 25 + 150 EtOH): 80%

CC(C)(C(=O)O)C(=O)O [Dimethylmalonic acid]
responders at 125000 µM (Tadpoles; [1]): 60% | responders at 250000 µM (Tadpoles; [1]): 60%

CCC(O)C(=O)O (stereo not shown) [2-Hydroxybutyric acid, 2-hydroxybutyric acid]
responders at 125000 µM (Tadpoles; [1]): 0%

O=C(O)C(=O)Cc1ccccc1 [Phenylpyruvic acid, 2-Oxo-3-phenylpropanoic acid]
responders at 62500 µM (Tadpoles; [1]): 100% | responders at 125000 µM (Tadpoles; [1]): 100%

C1CCc2nnnn2CC1 [Metrazol, pentylenetetrazol, reference compound]
Metrazol alone Time to Seizures (seconds), Avg. (CF-1 mice; [5]): 45.7 s | Metrazol alone Time to Twitch (seconds), Avg. (CF-1 mice; [5]): 37.3 s | Metrazol alone Time to Seizures (CF-1 mice; [6]): 43 seconds (2×) and 42 seconds (2×) and 59 seconds and 45 seconds and 39 seconds and 49 seconds (2×) | Metrazol alone Time to Twitch (CF-1 mice; [6]): 33 seconds and 36 seconds (2×) and 37 seconds and 52 seconds and 34 seconds (2×) and 31 seconds and 43 seconds

Succinic acid
Movement suppressed (%) (Tadpoles; [4]): 0% | Movement suppressed (%) (Tadpoles; Concentration (mM) 62.5 + 200 EtOH): 66%

CCCC(=O)OCC [ethyl butyrate]
Effect on the animals (mouse): lethargic and those loss coordination | Lethality to the animals (mouse; 250 mM solution in intralipid): lethal | Lethality to the animals (mouse; 1M solution in intralipid): lethal

O=C(O)c1cc(O)c2ccccc2n1 [Kynurenic acid, 4-hydroxyquinoline-2-carboxylic acid]
responders at 12500 µM (Tadpoles; [1]): 0%

Reference: patent US20200375958A1, “MEMBRANE ACTIVE MOLECULES” (priority 2017, published 2020)
